Experimental findings from patent US9868707B2, “Small molecule agonists of neurotensin receptor 1” (SANFORD-BURNHAM MEDICAL RESEARCH INSTITUTE, priority 2012, dated 2018) are described below.

Where “and” joins values, the source holds several entries; their conditions need not be identical. Equal values may be shown once. Some results are limits rather than exact numbers.

Data set [1] deals with Fa2N-4 immortalized human hepatocytes. Kind of data set: Cell viability with ATP-lite (hepatic toxicity). It is filed as cell-based. Here is the method: Hepatic toxicity of compounds was determined with Fa2N-4 immortalized human hepatocytes using the ATP-lite 1-step assay (Perkin Elmer). assay according to the manufacturer's instructions. Fa2N-4 cells (XenoTech, Kansas City, Kans.) were seeded at 50,000 cells/well, and incubated with a range of concentrations of the test compound (0.01 μM-50 μM) in MFE support, media for 24 hrs at 37° C., 5% CO2. At the end of the experiment, cell viability was determined by cellular ATP levels using the ATP-lite kit according to the manufacturer's instructions Luminescence was measured on the Infinite M200 plate reader (Tecan US).

Data set [2] is described as follows: Metabolic stability in mouse hepatic microsomes. It is filed as in vitro ADME. Here is the method: Hepatic metabolic stability was determined using established protocols (Di, L., Kerns, E. H., Hong, Y., Kleintop, T. A., McConnell, O. J., and Huryn, D. M. 2003. Optimization of a higher throughput microsomal stability screening assay for profiling drug discovery candidates. J Biomol Screen 8:453-462). Briefly, the compound (1.0 and 10.0 μM) was preincubated for 10 min at 37° C. in potassium phosphate buffer (pH 7.4) together with 0.5 mg/mL mouse or human hepatic microsomes (Xenotech, Kansas City). The cofactor mixture comprising NADP, G6P, and G6P-DH (BD Biosciences) was added, and aliquots were taken after 0 and 60 min. Samples were analyzed on an Acquity UPLC, coupled with a sample organizer, and interfaced with a triple quadrupole ABI 4000 LC/MS/MS using the methodology described above. The percentage of the compound remaining after a 60 min incubation period was calculated according the following equation: [(area at time 60 min)/(area at time 0 min)]×100%.

Data set [3] is described as follows: Brain levels in mouse after ip dosing. It is filed as in vivo.
Data set [4] can be described thus: Parallel Artificial Membrane Permeability Assay (PAMPA). It is filed as in vitro ADME. Here is the method:
The PAMPA in a 96-well sandwich plate format was used to determine the capacity of compounds to cross a model of cell membrane by passive diffusion (Avdeef, A., Nielsen, P. E., and Tsinman, O. 2004. PAMPA—a drug absorption in vitro model 11. Matching the in vivo unstirred water layer thickness by individual-well stirring in microtitre plates. Eur J Pharm Sci 22:365-374). The effective permeability of the compound was measured at an initial concentration of 50 μM. The permeability measurements were performed using a cosolvent buffer system (20% ACN/aqueous buffer) solution (pION Inc, Woburn Mass.) prepared according to the manufacturer's instructions. The compound was dissolved in buffer solution and ACN (20%, cosolvent) to the desired concentration (50 μM). The PAMPA sandwich plate consisting of a donor bottom plate and an acceptor filter plate was used. The donor wells contained the compounds in 190 μl system solution, and magnetic stir bars. The filter on the bottom of each acceptor well was coated with GIT-0 phospholipid solution (pION Inc) and filled with 200 μl of Acceptor Sink Buffer, pH 7.4 (pION Inc) containing surfactant. The permeation time was 30 min and moderate stirring (equivalent to 40 μm Aqueous Boundary Layer thickness) was applied using the Gut-Box™ (pION, Inc). After the permeation time, the sandwich was disassembled and the amount of compound present in both the donor and acceptor wells was measured by UV absorbance (250-498 nm) and compared to spectra obtained reference standards. Mass balance was used to determine the amount of material embedded in the membrane filter. The effective permeability, Pe, was calculated using the software PAMPA Evolution Plus, version 3.2 (pION Inc).

Data set [5] is described as follows: PK in mouse after iv and ip dose. It is filed as in vivo.
In another data set the target is NTR1 (Homo sapiens, UniProt P30989). Kind of data set: NTR1 Ca2+ Flux dose response (ChanTest, CHO). It is filed as cell-based. More on the design: host or cells: CHO. The following applies: profiled by ChanTest. Here is the method:
The NTR1 Ca^2+ Flux assay was performed by ChanTest (Rockville, Md.). The assay used a CHO cell line, provided by ChanTest, which stably expressed the NTR1 receptor. The cells were grown and plated in Ham's F12 (11765) that was supplemented with fetal bovine serum (10437). Both were supplied by Gibco/Life Technologies (Carlsbad, Calif.). The DPBS (21-031CV) used in the assay was obtained from Cellgro/Mediatech and the G418 (ant-gn-1) was supplied by Invivogen. The Fluo-4 NW Dye (Invitrogen F36206) used to detect calcium mobilization was sourced by Invitrogen. […]
NTSR1 (NTR1) CHO cells are plated in 20 uL of assay media containing Ham's F12 supplemented with 10% fetal bovine serum and 0.4 mg/mL G418 at a concentration of 1.0×10^6 cells per mL into black, 384-well assay plates with clear bottoms using a Multidrop liquid handler. […] Following the incubation in the presence of dye, the assay is run on a Molecular Devices FlexStation-III using 494 excitation and 516 emission wavelengths set to read for 90 seconds with the addition at 18 seconds of 5 uL of 6× final concentration of test compounds and peptide control diluted in assay media containing 0.1% BSA and no more than 9% DMSO to yield a maximum final DMSO concentration of 1.5%. Percent activation is calculated based on the maximum response minus the minimum value over the time course relative to the neurotensin 1 control peptide at 100 pM. […]

Sequence of NTR1 (P30989 whole entry): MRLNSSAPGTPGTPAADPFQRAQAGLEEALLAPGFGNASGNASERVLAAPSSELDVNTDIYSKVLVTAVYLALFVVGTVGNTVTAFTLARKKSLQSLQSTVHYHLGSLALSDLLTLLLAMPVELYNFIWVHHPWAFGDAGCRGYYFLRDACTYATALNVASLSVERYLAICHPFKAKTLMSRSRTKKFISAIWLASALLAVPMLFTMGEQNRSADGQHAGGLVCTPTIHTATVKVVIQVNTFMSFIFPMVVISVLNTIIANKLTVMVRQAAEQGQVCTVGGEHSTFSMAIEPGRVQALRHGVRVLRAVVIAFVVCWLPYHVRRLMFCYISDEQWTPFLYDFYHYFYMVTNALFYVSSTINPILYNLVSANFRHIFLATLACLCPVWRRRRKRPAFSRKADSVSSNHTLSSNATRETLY

In general, AUC refers to concentration integrated over time. In general, Cmax refers to the maximum level reached in the sampled fluid or tissue. For the compound `COc1cc2nc(C3CC3)nc(N3CCN(c4ccccc4OC)CC3)c2cc1OC` [Compound 315, 2-cyclopropyl-6,7-dimethoxy-4-(4-(2-methoxyphenyl)piperazin-1-yl)quinazoline], in data set [1], the “window for toxicity towards human hepatocytes” value was > 15 fold. For the same compound, in data set [1] (24 hrs, read-out: Toxicity Towards Fa2N-4 Immortalized Human Hepatocytes LC50), the CC50 was 30 µM and 29.6 µM. Also, in data set [2], the “Hepatic Microsome Stability (% Remaining at 1 hr)” value is recorded as 0.16% and the “metabolism in vitro with liver homogenates” value is reported as “metabolized rapidly”. In addition, in data set [3] (1 hr after 10 mg/kg ip dose), the brain/plasma was determined as 1.3. For the same compound, in data set [3] (1 hr after 30 mg/kg ip dose), the brain/plasma is recorded as 1.6. In addition, the “PAMPA Permeability, Pe” value in data set [4] (Donor pH 5.0, Acceptor pH 7.4) is 1163 ×10⁻⁶ cm/s. Besides, the “PAMPA Permeability, Pe” value in data set [4] (Donor pH 6.2, Acceptor pH 7.4) was 2145 ×10⁻⁶ cm/s. In addition, in data set [4] (Donor pH 7.4, Acceptor pH 7.4), the “PAMPA Permeability, Pe” value stood at 2093 ×10⁻⁶ cm/s. Also, the “permeability in the PAMPA assay” value in data set [4] (with increasing pH of the donor compartment) is “high permeability”. Moreover, in data set [5] (2 mg/kg iv dose), the Vdss is reported as 6.22 L/kg and the t1/2 was 1.93 h. In data set [5] (10 mg/kg ip dose), the AUC is 1223 ng·h/mL, the Cmax is on record as 763 ng/mL and the t1/2 was found to be 2.58 h. The “PK properties in mouse” value in data set [5] (in vivo) was “modest PK properties”. Besides, the “NTR1 Ca2+ Flux assay activity” value on NTR1 is given as “not active”.
